# Laboratory results from patent publication US4183910A, “Method for testing to predict and/or diagnose allergy to penicillins, and compounds and compositions for use in such tests” (priority 1978, dated 1980).
# What was measured:
# Assay type in all cases: in vivo, human
# [1] = system: patients known to give positive skin test to penicillin derivatives; assay: Intradermal skin test with BPO-amines and other penicillin allergy skin test materials (Table II); details: for Skin test reaction of patient four, in words: text summary of Table II; for Intensity of reactions in patients: patient iota: patient nine; for Intensity of reactions in patients: patient zeta: patient one; for Intensity of reactions in patients: patient epsilon: patient seven; for Intensity of reactions in patients: delta: patient six; for Intensity of reactions in patients: beta: patient three; for Intensity of reactions in patients: patient gamma: patient eight; for Skin test reaction of patient four, in words / Intensity of reactions in patients: patient alpha: patient four; for Intensity of reactions in patients: theta: patient two
# Excerpt: Benzylpenicillin (PG) was 1.0×10^-2 M in 0.11M saline.
# Sodium benzylpenicilloate plus sodium benzylpenilloate (P/P) was 1.0×10^-2 M of each dissolved in phosphate buffered saline at pH 7.5.
# Benzylpenicilloyl-amine (BPO-amine) was 1.0×10^-2 M concentration phosphate buffered saline at pH 7.5.
# Benzylpenicilloyl-n-propyl amine and benzylpenicilloyl-n-ethyl amine (as α-diastereoisomers) were each dissolved to 1.0×10^-2 M concentration in phosphate buffered saline at pH 7.5.
# They were healthy men and women ranging in age from 23 to 56 years. Ten people negative to the skin test materials served as controls.
# Using 1.0 ml tuberculin syringes with #26 needles and intradermal bevels, 0.01 ml volumes of the test materials were injected intradermally into the anterior-lateral aspects of the arms. Skin tests were read in 15 minutes. A negative reaction is the poorly outlined bleb of fluid --1-3 mm in diameter without surrounding erythema. Positive tests were sharply outlined wheals of 4-20 mm diameter with surrounding erythema. The positive tests were graded as 1+,2+,3+ and 4+ on the basis of wheal diameter. 1+=4-6 mm; 2+=7-9 mm; 3+=10-12 mm; and 4+=more than 13 mm with pseudopods. […] Skin tests were done in duplicate.
# [2] = system: patients allergic to penicillin; assay: Prick skin test with B8 L8 solution; details: Patient No. 1; B8 L8 1×10^-6 molar in tris-buffered saline pH 8.2
# Protocol: (§1) The B8 L8 stock solution was diluted to 1×10^-6 molar in tris-buffered saline with a pH of 8.2, also containing ethylenediaminetetraceticacid (2×10^-4 molar) for stability. The composition was then used in skin testing. The tests were conducted by both the prick test and intradermal test methods, and the results were as follows:
# Patient No. 1--prick test--B8 L8 =2+.
# [3] = system: patients allergic to penicillin; assay: Intradermal skin test with B8 L8 solution; details: Patient No. 2; B8 L8 1×10^-6 molar in tris-buffered saline pH 8.2
# Protocol: as §1
# Patient No. 2--intradermal test--the B8 L8 gave a 10 mm wheal and rated from 2+ to 3+ in intensity.
# [4] = intradermal 0.01 ml, read in 15 minutes, BPL 1 × 10^-6 M, other materials 1 × 10^-2 M
compound,measurement,setting,value
"CCCNC(=O)[C@@H](NC(=O)Cc1ccccc1)[C@@H]1N[C@@H](C(=O)O)C(C)(C)S1 [BPO-propyl amine, Benzylpenicilloyl-n-propyl amine]","Skin test reaction of patient four, in words",[1],positive reaction
same,Intensity of reactions in patients: patient iota,[1]; [4],1+ (1+=4-6 mm)
same,Intensity of reactions in patients: patient zeta,[1]; [4],1 - 2°
same,Intensity of reactions in patients: patient epsilon,[1]; [4],trace
same,Intensity of reactions in patients: delta,[1]; [4],0 (A negative reaction is the poorly outlined bleb of fluid --1-3 mm in diameter without surrounding erythema)
same,Intensity of reactions in patients: beta,[1]; [4],2+ (2+=7-9 mm)
"CC1(C)S[C@@H]2[C@H](NC(=O)Cc3ccccc3)C(=O)N2[C@H]1C(=O)O [PG, Benzylpenicillin]",Intensity of reactions in patients: patient gamma,[1]; [4],0 (A negative reaction is the poorly outlined bleb of fluid --1-3 mm in diameter without surrounding erythema)
same,Intensity of reactions in patients: patient eta,"[1]; patient five, intradermal 0.01 ml, read in 15 minutes, BPL 1 × 10^-6 M, other materials 1 × 10^-2 M",0 (A negative reaction is the poorly outlined bleb of fluid --1-3 mm in diameter without surrounding erythema)
same,Intensity of reactions in patients: patient alpha,[1]; [4],0 (A negative reaction is the poorly outlined bleb of fluid --1-3 mm in diameter without surrounding erythema)
same,Intensity of reactions in patients: patient iota,[1]; [4],trace
same,Intensity of reactions in patients: patient zeta,[1]; [4],2+ (2+=7-9 mm)
same,Intensity of reactions in patients: patient epsilon,[1]; [4],trace
same,Intensity of reactions in patients: delta,[1]; [4],0 (A negative reaction is the poorly outlined bleb of fluid --1-3 mm in diameter without surrounding erythema)
same,Intensity of reactions in patients: beta,[1]; [4],1+ (1+=4-6 mm)
same,Intensity of reactions in patients: theta,[1]; [4],2+ (2+=7-9 mm)
Benzylpenicilloyl-amine [BPO-amine],Intensity of reactions in patients: patient gamma,[1]; [4],1+ (1+=4-6 mm)
same,Intensity of reactions in patients: patient alpha,[1]; [4],1+ (1+=4-6 mm)
same,Intensity of reactions in patients: patient iota,[1]; [4],2+ (2+=7-9 mm)
same,Intensity of reactions in patients: patient epsilon,[1]; [4],trace
same,Intensity of reactions in patients: delta,[1]; [4],0 (A negative reaction is the poorly outlined bleb of fluid --1-3 mm in diameter without surrounding erythema)
Benzylpenicilloyl8 -Poly-L-Lysine8 [B8 L8],Prick test reaction intensity,[2],2+ (2+=7-9 mm)
same,"Size of the wheal (diameter), prick test",[2],4-5 mm
same,"Wheal, intradermal test",[3],10 mm
"CCNC(=O)C(NC(=O)Cc1ccccc1)C1NC(C(=O)O)C(C)(C)S1 (centres unmarked) [BPO-ethyl amine, benzylpenicilloyl-n-ethyl amine]",Intensity of reactions in patients: patient alpha,[1]; [4],2+ (2+=7-9 mm)
same,"Skin test reaction of patient four, in words",[1],positive reaction
same,Intensity of reactions in patients: patient iota,[1]; [4],0 (A negative reaction is the poorly outlined bleb of fluid --1-3 mm in diameter without surrounding erythema)
same,Intensity of reactions in patients: patient epsilon,[1]; [4],trace
same,Intensity of reactions in patients: delta,[1]; [4],0 (A negative reaction is the poorly outlined bleb of fluid --1-3 mm in diameter without surrounding erythema)
same,Intensity of reactions in patients: theta,[1]; [4],3+ (3+=10-12 mm)
